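Values below derive from 48-hour exposures of cells grown in 96-well plates, with endpoints linearly interpolated between the two concentrations bracketing the appropriate inhibition level. GI50: concentration for 50% inhibition of growth. TGI: total growth inhibition.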
What was measured:
Test in all cases: NCI anticancer screen, dose series, 48 h
T-47D breast = system: T-47D breast
HCT-15 colon = system: HCT-15 colon
SK-MEL-2 melanoma = system: SK-MEL-2 melanoma
LOX IMVI melanoma = system: LOX IMVI melanoma
EKVX NSCLC = system: EKVX NSCLC
SNB-75 CNS = system: SNB-75 CNS
NCI-H226 lung = system: NCI-H226 lung
OVCAR-5 ovarian = system: OVCAR-5 ovarian
SN12C renal = system: SN12C renal
A549 NSCLC = system: A549 NSCLC

Structure (SMILES)	GI50 (T-47D breast)	TGI (T-47D breast)	GI50 (HCT-15 colon)	TGI (HCT-15 colon)	GI50 (SK-MEL-2 melanoma)	TGI (SK-MEL-2 melanoma)	GI50 (LOX IMVI melanoma)	TGI (LOX IMVI melanoma)	GI50 (EKVX NSCLC)	TGI (EKVX NSCLC)	GI50 (SNB-75 CNS)	TGI (SNB-75 CNS)	GI50 (NCI-H226 lung)	TGI (NCI-H226 lung)	GI50 (OVCAR-5 ovarian)	TGI (OVCAR-5 ovarian)	GI50 (SN12C renal)	TGI (SN12C renal)	GI50 (A549 NSCLC)	TGI (A549 NSCLC)
O=C1/C(=C/c2ccccc2[N+](=O)[O-])COc2ccc(O)cc21	2.36 µM	17.6 µM	0.417 µM	2.06 µM	2.98 µM	11 µM	1.05 µM	2.27 µM	3.22 µM	14.5 µM	2.76 µM	19.6 µM	2.4 µM	10.9 µM	1.73 µM	3.64 µM	1.6 µM	5.55 µM	4.49 µM	19.4 µM
COc1ccc(COc2cc3oc(=O)c4cc(C(C)O)ccc4c3cc2OC)cc1 (stereo not given)	12.7 µM	> 100 µM	12 µM	> 100 µM	7.69 µM	30 µM	18.7 µM	> 100 µM	19.7 µM	> 100 µM	2.08 µM	11.1 µM	12.3 µM	49.8 µM	41.5 µM	> 100 µM	21.2 µM	> 100 µM	14 µM	> 100 µM
CN(C)c1nc(N)c(C#N)c(C#N)c1C#N		> 10 µM		> 10 µM		> 10 µM		> 10 µM		> 10 µM		> 10 µM		> 10 µM		> 10 µM		> 10 µM		> 10 µM
O=C1C(Sc2ccc3ccccc3c2)=C(Sc2ccc3ccccc3c2)C(=O)c2ccccc21		4.62 µM		23.5 µM		19.3 µM		47.8 µM		23.8 µM		28.7 µM		37.4 µM		27.1 µM		24.7 µM		21.7 µM
Nc1nc(-c2ccc(Cl)cc2)nc2c1sc(=S)n2-c1ccccc1	2.13 µM	5.54 µM	4.92 µM	> 100 µM	10.7 µM	41.2 µM	2.07 µM	4.91 µM	2.75 µM	14.7 µM	1.73 µM	3.72 µM	2.78 µM	6.73 µM	4.98 µM	20.5 µM	6.34 µM	48.1 µM	3.67 µM	25.4 µM
O=C1/C(=C/c2ccccc2O)N=C(c2ccccc2)N1c1cc(C(F)(F)F)ccc1Cl	6.68 µM	> 100 µM	64.7 µM	> 100 µM	> 100 µM	> 100 µM	40.8 µM	> 100 µM	38.3 µM	> 100 µM	18.1 µM	37.7 µM	33 µM	> 100 µM	> 100 µM	> 100 µM	53.6 µM	> 100 µM	75.7 µM	> 100 µM
COCCOCCOCCOCCOC(=O)OC[n+]1ccc(NC(=NCCCCCCOc2ccc(Cl)cc2)NC#N)cc1	0.112 µM	17.5 µM	< 0.01 µM	17.9 µM	11.4 µM	27.3 µM	2.57 µM	20.6 µM	3.93 µM	14.9 µM	14.1 µM	27.9 µM	12.7 µM	30.4 µM	3.98 µM	22 µM	< 0.01 µM	15.7 µM	2.22 µM	19.2 µM
CCn1ccnc1C(=O)/C=C/c1ccc(CC(=O)Nc2ccc(F)cc2)cc1	3.79 µM	> 16.7 µM	1.93 µM	8.96 µM	6.26 µM	> 16.7 µM	0.561 µM	2.83 µM	3.59 µM	12.2 µM	2.81 µM	> 16.7 µM	3.61 µM	9.53 µM	4.97 µM	> 16.7 µM	3.71 µM	> 16.7 µM	4.16 µM	12.7 µM
NCc1ccc(-c2nc(-c3ccc(Cl)c(O)c3)c(-c3ccncc3)[nH]2)cc1	> 25 µM	> 25 µM	> 25 µM	> 25 µM	1.65 µM	9.86 µM	16.7 µM	> 25 µM	> 25 µM	> 25 µM	4.1 µM	> 20 µM	> 25 µM	> 25 µM	> 25 µM	> 25 µM	> 25 µM	> 25 µM	> 25 µM	> 25 µM
COC(=O)c1cc([N+](=O)[O-])cc([N+](=O)[O-])c1Cl	1.71 µM	4.21 µM	2.19 µM	5.44 µM	3.52 µM	12.6 µM	1.75 µM	3.36 µM	14.1 µM	28.8 µM	1.93 µM	5.07 µM	3.58 µM	13.9 µM	2.7 µM	10.2 µM	3.15 µM	11 µM	20.4 µM	46.8 µM
COc1cc(/C=C/C(=O)O[C@H]2[C@H](O[C@@H]3O[C@@H](C)[C@H](O)[C@@H](O)[C@H]3O)[C@@H](O)[C@H](OCCc3ccc(O)c(O)c3)O[C@@H]2COC2OCC(O)(CO)C2O)ccc1O (stereo not given in full)	> 100 µM	> 100 µM	> 100 µM	> 100 µM	> 100 µM	> 100 µM	21.6 µM	53.6 µM	> 100 µM	> 100 µM	> 100 µM	> 100 µM	> 100 µM	> 100 µM	> 100 µM	> 100 µM	> 100 µM	> 100 µM	> 100 µM	> 100 µM
[Cl][Cu][Cl]	> 10 µM	> 10 µM	> 10 µM	> 10 µM	> 10 µM	> 10 µM	> 10 µM	> 10 µM	> 10 µM	> 10 µM	> 10 µM	> 10 µM	> 10 µM	> 10 µM	> 10 µM	> 10 µM	> 10 µM	> 10 µM	> 10 µM	> 10 µM
